Data on four compounds can be found in US10166142B2, “Small molecule delivery with implantable therapeutic device” (ForSight Vision4, Inc., priority 2011, dated 2019).

A short description of series [1]: Solubility of dorzolamide suspension formulation, Example A. The class given is physicochemical. The conditions noted are these: aqueous buffer, thermodynamic from solid; PBS+0.02% sodium azide, pH 7.4, 37C; read-out: dissolved concentration (i.e., solubility).
Series [2] can be described thus: Diffusion coefficient in water (literature value / estimate by MW scaling). It is filed as physicochemical. The conditions noted are these: estimated, at 37C.
From the text: If the reservoir solution is aqueous or has a viscosity similar to water, the value for the diffusion coefficient of the therapeutic agent (TA) in water at the temperature of interest may be used. […] (Molokhia et al, Exp Eye Res 2008): DTA,37C=DBSA,20C(η20C/η37C)(MWBSA/MWTA)^1/3 where
MW refers to the molecular weight of either BSA or the test compound and η is the viscosity of water.
Small molecules have a diffusion coefficient similar to fluorescein (MW=330, D=4.8 to 6 e-6 cm^2/s from Stay, M S et al. Pharm Res 2003, 20(1), pp. 96-102). For example, the small molecule may comprise a glucocorticoid such as triamcinolone acetonide having a molecular weight of about 435.
(§1) The volume of the device was approximately 25 uL.
as §1

For series [3] the following is noted: rabbit and monkey (Gaudreault et al), cited from earlier work.
For series [4] the following is noted: cited from earlier work.
Series [5] deals with laser photocoagulation treatment-induced Grade IV choroidal neovascularization (CNV) Lesions. The conditions noted are these: intravitreal injection, all doses tested (Z. Yao et al., ARVO 2009); cited from earlier work.

Counter-ions that a name gives are not always drawn. Like-named read-outs stand apart in the source and are kept apart here.

Turning to `CCN[C@H]1C[C@H](C)S(=O)(=O)c2sc(S(N)(=O)=O)cc21` [Dorzolamide, dorzolamide Hydrochloride], the solubility in series [1] amounted to 9000 µg/mL.
`O=C(c1ccccc1)c1ccc2n1CCC2C(=O)O` (centres unmarked) [Ketorolac, Ketorolac Tromethamine]: the diffusion coefficient in series [2] is reported as 6×10^−6 cm^2/s.
Take `CN(Cc1cnc2nc(N)nc(N)c2n1)c1ccc(C(=O)N[C@@H](CCC(=O)O)C(=O)O)cc1` [Methotrexate, methotrexate]: the diffusion coefficient in series [2] is 5×10^−6 cm^2/s.
For ranibizumab [Lucentis], the values for the half-life in vitreous entry in series [3], in series [3] (listed as ranibizumab) and in series [4] (human eye (Lucentis package insert)) were “about two to four days”, “approximately 3 days” and approximately 220 h, respectively. Further, in series [4] (human vitreous, model parameter for FIGS. 119 to 124), the “Half-life” value is 220 h. Moreover, the “development of Grade IV CNV lesions” value in series [5] is given as “completely inhibit”.
